Measured values from the supplement of paper PMC10307832.

Key:
Test in all cases: relative viability (nuclei count vs DMSO), 5 days (fraction); higher = more cells survive
[1] = compound: CCN(CCO)CCCC(C)Nc1ccnc2cc(Cl)ccc12 [Hydroxychloroquine] + O=C(c1cc(Cc2n[nH]c(=O)c3ccccc23)ccc1F)N1CCN(C(=O)C2CC2)CC1 [Olaparib] (partner 8 µM)
How it was run: (§1)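 Cells from lung cancer lines were seeded into 1536-well plates and, one day later, dosed by pin tool. Treatments were either a single drug or a fixed dose of an anchor drug with five library-drug doses (not always all listed) in √10 steps. After 5 days, nuclei were stained in a one-step fixation (final 0.05% Triton X-100, 1% formaldehyde, 1 ug/ml Hoechst) and counted on 4× images, and relative viability is the treated-to-vehicle nuclei ratio, as the median of duplicate plates.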

[2] = compound: CCN(CCO)CCCC(C)Nc1ccnc2cc(Cl)ccc12 [Hydroxychloroquine] + CC(=O)c1c(C)c2cnc(Nc3ccc(N4CCNCC4)cn3)nc2n(C2CCCC2)c1=O [Palbociclib] (partner 0.5 µM)
How it was run: as §1

[3] = compound: CCN(CCO)CCCC(C)Nc1ccnc2cc(Cl)ccc12 [Hydroxychloroquine] + Cc1nc(NC(=O)N2CCC[C@H]2C(N)=O)sc1-c1ccnc(C(C)(C)C(F)(F)F)c1 [Alpelisib] (partner 2 µM)
How it was run: as §1

[4] = compound: CCN(CCO)CCCC(C)Nc1ccnc2cc(Cl)ccc12 [Hydroxychloroquine] + Nc1nc2[nH]cc(CCc3ccc(C(=O)N[C@@H](CCC(=O)O)C(=O)O)cc3)c2c(=O)[nH]1 [Pemetrexed] (partner 0.2 µM)
How it was run: as §1

Cell Line | relative viability ([1]; first compound 0.5 µM) | relative viability ([1]; first compound 1.581 µM) | relative viability ([1]; first compound 5 µM) | relative viability ([1]; first compound 15.81 µM) | relative viability ([1]; first compound 50 µM) | relative viability ([2]; first compound 0.5 µM) | relative viability ([2]; first compound 1.581 µM) | relative viability ([2]; first compound 5 µM) | relative viability ([2]; first compound 15.81 µM) | relative viability ([2]; first compound 50 µM) | relative viability ([3]; first compound 0.5 µM) | relative viability ([3]; first compound 1.581 µM) | relative viability ([3]; first compound 5 µM) | relative viability ([3]; first compound 15.81 µM) | relative viability ([3]; first compound 50 µM) | relative viability ([4]; first compound 0.5 µM) | relative viability ([4]; first compound 1.581 µM) | relative viability ([4]; first compound 5 µM) | relative viability ([4]; first compound 15.81 µM) | relative viability ([4]; first compound 50 µM)
LU99A | 0.261 | 0.265 | 0.228 | 0.299 | 0.254 | 0.356 | 0.383 | 0.377 | 0.444 | 0.473 | 0.481 | 0.364 | 0.534 | 0.498 | 0.619 | 0.179 | 0.194 | 0.157 | 0.198 | 0.206
LXF-289 | 1.07 | 1.06 | 1.07 | 1.15 | 1.16 | 0.577 | 0.588 | 0.656 | 0.575 | 0.602 | 1 | 1 | 1.06 | 1.03 | 1.11 | 0.886 | 0.908 | 0.92 | 0.929 | 0.927
NCI-H522 | 0.578 | – | 0.68 | 0.642 | 0.608 | 0.822 | – | 1.03 | 0.986 | 0.798 | – | – | – | – | – | 1.02 | – | 1.39 | 0.974 | 0.98
NCI-H596 | 0.668 | 0.711 | 0.77 | 0.716 | 0.604 | – | – | – | – | – | 0.461 | 0.463 | 0.546 | 0.606 | 0.492 | 0.547 | 0.481 | 0.45 | 0.479 | 0.489
NCI-H727 | 0.738 | 0.673 | 0.653 | 0.73 | 0.629 | 0.643 | 0.552 | 0.561 | 0.661 | 0.688 | 0.454 | 0.58 | 0.589 | 0.512 | 0.526 | – | – | – | – | –
NCI-H1299 | 0.997 | 0.974 | 0.947 | 1.01 | 0.917 | – | – | – | – | – | 0.999 | 1.04 | 1.03 | 1.12 | 0.996 | – | – | – | – | –
NCI-H1563 | – | – | – | – | – | – | – | – | – | – | 0.908 | 0.877 | 1 | 0.888 | 0.871 | 0.888 | 0.692 | 0.724 | 0.78 | 0.875
NCI-H1648 | 0.766 | 0.965 | 1.01 | 1.06 | 0.926 | 0.277 | 0.264 | 0.266 | 0.211 | 0.288 | – | – | – | – | – | 0.844 | 0.785 | 0.734 | 0.859 | 0.694
NCI-H1650 | 0.804 | 0.781 | 0.788 | 0.881 | 0.917 | 0.291 | 0.341 | 0.317 | 0.323 | 0.355 | – | – | – | – | – | 0.337 | 0.331 | 0.342 | 0.397 | 0.346
NCI-H1703 | 0.424 | 0.431 | 0.556 | 0.467 | 0.446 | – | – | – | – | – | 0.401 | 0.21 | 0.326 | 0.343 | 0.367 | – | – | – | – | –
NCI-H2342 | 0.434 | 0.386 | 0.42 | 0.421 | 0.509 | 0.565 | 0.514 | 0.507 | 0.487 | 0.514 | – | – | – | – | – | 0.744 | 0.695 | 0.75 | 0.81 | 0.906
